Measurements from patent US5976523A, “Method for healing compromised tissues using pyrimidine derivatives” (Mitsui Pharmaceuticals, Inc., priority 1995, dated 1999).
Counter-ions that a name gives are not always drawn.

Experiments:
TMK1 cells = test: Morphological change of TMK1 cells; format: cell-based
PDGF-A mRNAs = test: Northern blot analysis of PDGF-A mRNA expression in cultured rat SMCs; format: cell-based
Procedure: SMCs were prepared following the method proposed by Ross and Klebanoff in "J. Cell. Biol.", 50, 159 ff, 1971 with partial modifications. A rat thoracic aorta was excised. After the tunica externa was peeled off, the tunica media and the tunica intima were minced into 2-3 mm^2. The minced sections were placed standstill in a 25-cm^2 flask which contained Waymouth's MB 752/1 medium containing 10% FBS and 80 ng/ml of gentamycin (product of Schering-Plough Corp.), followed by incubation at 37° C. for 2 to 3 weeks in the presence of 5% carbon dioxide gas (primary culture). The same volume of a trypsin-EDTA solution was added to the flask. After the sections were treated at 37° C. for 5 minutes to peel off cells, the cells were diluted with 10% FBS-Waymouth's MB 752/1 medium and then subcultured (second generation). Subculture was successively conducted likewise whenever the SMC became confluent. In the following experiments, the cells from the 5th generation to the 12th generation were employed.
After reach in confluence of cells, the cultured SMCs were cultured for 2 days in a serum-free medium to avoid influence of serum. The SMCs were then added with thrombin (1.0 U/ml) or serotonin (5 μM), followed by incubation at 37° C. for 6 hours under which bring about induction of PDGF-A mRNAs at the maximum. To prevent dissociation of ribosomes and mRNAs, cycloheximide (100 μg/ml) was added 5 minutes before cells were collected.
Preparation of a polysome fraction and extraction of RNAs were conducted following the method proposed by Kasper, et al. in "J. Biol. Chem.", 267, 508 ff, 1992 with slight modifications. The cells, which had been collected by the treatment with trypsin, were washed with PBS containing cycloheximide (100 μg/ml). A cell precipitate was then added with 500 μl of a high-salt lysis buffer (20 mM Tris-HCl pH 7.5, 250 mM NaCl, 5 mM MgCl2, 0.1% Noni det P-40, 0.2% DOC) for homogenization. The homogenate was centrifuged under 12,000×g at 4° C. for 10 minutes. The resulting supernatant was added with 67 μl of a heparine mix (7.4 mg/ml heparine, 1.1M NaCl, 15 mM DTT and RNasin). 200 μl of the extract were layered on 5 ml of 0.5-1.25M linear sucrose gradient (which contained 20 mM Tris-HCl pH 7.4, 10 mM NaCl, 3 mM MgCl2), followed by centrifugation under 45,000 rpm for 90 minutes in a "Hitachi RP55ST". While monitoring the absorbance at 260 nm, ten (10) fractions were obtained. To prepare samples for the extraction of RNAs, the fractions were individually added with SDS and proteinase K to give final concentrations of 1% and 0.2 mg/ml, respectively. Subsequent to incubation at 37° C. for 1 hour, each fraction was extracted once with 1/2 volume of phenol, twice with 1/2 volume aliquots of chloroform, and once with the equal volume of chloroform, whereby proteins were removed. The water layer was added with glycogen (20 μg/ml) as a coprecipitant and then with 0.03M of sodium acetate, and RNAs were caused to precipitate with 2 volumes of ethanol.
After RNAs were incubated at 65° C. for 5 minutes in a solution containing 60% of formamide, 5.9% of formaldehyde and the equal volume of MOPS buffer (10 mM MOPS pH 7.0, 4 mM NaOAc, 0.5 mM EDTA), electrophoresis was conducted across 1.2% agarose gels containing the equal volume of MOPS buffer so that RNAs were. isolated. After the gel was washed with 20 volumes of SSC, RNAs were blotted overnight to a Gene Screen Plus membrane by the capillary method. Fixing of the RNAs was conducted by exposing them for 1 minute at a distance of 10 cm from a 15-W sterilamp. Using a "QuickHyb Hybridization Solution" (product of Strategene Ltd.), hybridization was conducted following the instruction manual attached to the solution. Results of autoradiography were quantitated with reference to the NIH Image. […]

fractured tibia = test: Tibia fracture model, histology on the 7th day; format: in vivo, Wistar rat; details: 5 mg/kg i.p. once a day, 7 days
Procedure: The tibia of each Wistar (body weight: 260-330 g) was broken manually and stabilized in situ by using a 22G syringe needle as an intramedullary nail under anesthesia by pentobarbital. The rats were divided into two groups. To one of the groups, 2-piperazino-6-methyl-5-oxo-5,6-dihydro(7H)pyrro[3,4-d]pyrimidine maleate was intraperitoneally administered at 5 mg/kg once a day everyday for 7 days from immediately after the fracture. The other group was used as a control group, to which physiological saline was administered likewise. The rats in both the groups were sacrificed on the 7th day. The broken tibia of each rat was […], embedded in paraffin and then subjected to HE staining. The texture of the fractured site was pathohistologically examined. In the control group, proliferation mesenchymal cells, which were considered to be derived from periosteal cells, and membranous ossification of an osteoid tissue were observed centering around the fractured site on the 7th day after the fracture. Further, honeycomb-shaped proliferation of chondrocytes in a small number associated with formation of a cartilage matrix was observed inside the mesenchymal cells.

bone defect (tibia) = test: Rat bone defect model, formation of hyaline cartilage matrix; format: in vivo; details: bFGF (0.5 μg) + compound (0.5 mg) pellet, 7th day, vs bFGF pellet
Source text: Action of 2-piperazino-6-methyl-5-oxo-5,6-dihydro(7H)pyrro[3,4-d]pyrimidinemaleate on in vivo chondrogenesis was studied in detail by preparing a rat bone defect model which permits observation of bFGF-derived formation of a hyaline cartilage matrix. Embedment of a bFGF-containing pellet in a bone defect of the model permits easy observation of formation of a hyaline cartilage matrix under the periosteum around the bone defect. Rats were divided into three groups. The rats in one of the groups were each embedded in a formed bone defect (diameter: 2.6 mm) thereof with a hydroxyethyl methacrylate pellet (10 mg) which contained bFGF (0.5 μg). The rats in another one of the groups were each embedded likewise with a hydroxyethyl methacrylate pellet (10 mg) which contained bFGF (0.5 μg) and the invention compound (0.5 mg). The rats in the remaining group, that is, a control group were each embedded similarly with a pellet which contained physiological saline. After the rats in all the three groups were sacrificed seven days later, action of bFGF or the invention compound on the process of chondrogenesis on enchondral ossification around the bone defect was investigated. On the 7th day after the formation of the bone defect, the tibia of each rat was histologically examined around the bone defect.

Which “time of sprouting of the process of the cells similar to neurites” value (TMK1 cells; EGF and compound) does the source give for CN1Cc2nc(N3CCNCC3)ncc2C1=O [Compound B, 2-piperazino-6-methyl-5-oxo-5,6-dihydro(7H)pyrro[3,4-d]pyrimidine maleate] here?
Its value is 8 h.

What about the morphological changes (TMK1 cells; EGF and compound, compared with EGF alone) of the same compound?
The morphological changes was “still more marked intensive morphological changes”.

What about the “network formation of cell processes” value (TMK1 cells; EGF and compound, day 1) of the same compound?
The value was “forming a dense network on day 1”.

What about the morphological changes (TMK1 cells; singly added, 1 mM, fifth hour to day 1) of the same compound?
Its morphological changes is “only slight morphological changes”.

What about the “morphological changes after removal of the test agent” value (TMK1 cells; test agent removed) of the same compound?
The value was “these morphological changes disappeared”.

And the fold induction at 100 µM (PDGF-A mRNAs; Rattus norvegicus, 6 h, read-out: expression amount of 1.7 kb PDGF-A mRNAs compared with control)?
Its fold induction at 100 µM is 1.4.

And the “band of 1.3 kb PDGF-A” value (PDGF-A mRNAs; addition of compound)?
Its value is “additionally detected”.

What about the “2.3 kb PDGF-A mRNAs” value (PDGF-A mRNAs; compound 0.1 mM + thrombin) of the same compound?
Its value is “in greater amounts”.

And the “2.9 kb PDGF-A mRNAs” value (PDGF-A mRNAs; compound 0.1 mM + thrombin)?
Its value is “in greater amounts”.

And the “proliferation of mesenchymal cells at the fractured site” value (fractured tibia)?
The value was “marked proliferation of mesenchymal cells”.

And the “proliferation of chondrocytes associated with formation of a hyaline cartilage matrix enchondral ossification” value (fractured tibia; vs control group)?
Its value is “in a quantity apparently much greater than that of the control group”.

What about the “formation of a hyaline cartilage matrix” value (bone defect (tibia)) of the same compound?
Its value is “in an amount apparently larger than that formed in the group embedded with the bFGF-containing pellet”.
